We go through nine molecules from patent publication US12643887B2, “Heterocyclic derivatives with cardiomyocyte proliferation activity for treatment of heart diseases” (Tongji University, priority 2019, dated 2026).

Holding throughout (format): biochemical
Assay [1] concerns the target T1, human DYRK1A (Homo sapiens, UniProt Q13627).
T1 construct: Recombinant full-length DYRK1A (expressed in E. Coli cells with an N-terminal GST tag); GST (N); purchased SignalChem D09-10G; host or cells: E. coli
The assay is described as follows: DYRK1A enzyme assay (ADP-Glo). Particulars: ADP-Glo, ATP 60 μM; read-out: DYRK1A IC50. Put shortly: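 ADP formed is quantified by luciferase luminescence (ADP-Glo) after a 60-minute, 25 °C reaction with 60 μM ATP and 20 μM DYRKtide peptide. Enzyme: 3 nM recombinant N-terminal GST DYRK1A, given 30 min compound preincubation in Tris pH 7.5/MgCl2/BSA/DTT buffer; % inhibition versus plate controls, four-parameter IC50.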

Assay [2] addresses T2, human HIPK1 (Homo sapiens, UniProt Q86Z02).
T2 construct: Recombinant human HIPK1 (156-555); GST (N); purchased SignalChem H03-11G; host or cells: Sf9 insect cells
The assay is described as follows: HIPK1 enzyme assay (ADP-Glo). Particulars: ADP-Glo, ATP 5 μM; read-out: HIPK1 IC50. Put shortly: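 Recombinant GST-tagged HIPK1 (156-555, Sf9), 4 nM, preincubated 30 min at 25° C with compound in Tris pH 7.5/MgCl2/BSA/DTT, then reacted 90 min with 0.05 mg/ml MBP and 5 μM ATP. ADP formed read by ADP-Glo luminescence; IC50 from four-parameter logistic fit of % inhibition versus Max/Min controls.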
For orientation: ADP-Glo turns the ADP formed in a reaction into a luminescent signal.

Assay [3] addresses T3, human HIPK2 (Homo sapiens, UniProt Q9H2X6).
T3 construct: Recombinant human HIPK2 (1-640); GST (N); purchased SignalChem H04-11BG; host or cells: Sf9 insect cells
The assay is described as follows: HIPK2 enzyme assay (ADP-Glo). The settings on record: ADP-Glo, ATP 5 μM; read-out: HIPK2 IC50. In outline: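 GST-tagged HIPK2 (1-640) from Sf9, 1 nM, preincubated 30 min at 25° C with inhibitor in 40 mM Tris pH 7.5, 20 mM MgCl2. Reaction ran 90 min at 25° C with GST-MBP substrate at 0.05 mg/ml and 5 μM ATP. ADP-Glo luminescence; IC50 by four-parameter logistic fit.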

The term IC50 denotes the point on the concentration scale where inhibition reaches its midpoint.

T3 sequence (Q9H2X6 1-640): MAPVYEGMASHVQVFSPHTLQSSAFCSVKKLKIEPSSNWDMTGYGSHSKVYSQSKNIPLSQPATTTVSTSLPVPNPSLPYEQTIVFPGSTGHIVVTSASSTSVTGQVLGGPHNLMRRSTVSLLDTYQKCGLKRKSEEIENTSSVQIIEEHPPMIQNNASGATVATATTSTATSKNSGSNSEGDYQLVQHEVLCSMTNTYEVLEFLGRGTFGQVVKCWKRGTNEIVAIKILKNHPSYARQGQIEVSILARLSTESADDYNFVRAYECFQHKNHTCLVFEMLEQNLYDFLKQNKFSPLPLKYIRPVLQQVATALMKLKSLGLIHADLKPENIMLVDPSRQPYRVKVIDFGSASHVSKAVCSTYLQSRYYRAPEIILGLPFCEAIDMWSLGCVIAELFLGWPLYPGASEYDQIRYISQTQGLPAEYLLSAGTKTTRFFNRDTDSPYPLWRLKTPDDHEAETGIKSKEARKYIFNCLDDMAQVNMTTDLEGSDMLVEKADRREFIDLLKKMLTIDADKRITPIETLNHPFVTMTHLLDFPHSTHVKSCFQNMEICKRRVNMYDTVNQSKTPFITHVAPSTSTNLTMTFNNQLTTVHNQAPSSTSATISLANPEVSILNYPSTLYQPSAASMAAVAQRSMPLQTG
T2 sequence (Q86Z02 156-555): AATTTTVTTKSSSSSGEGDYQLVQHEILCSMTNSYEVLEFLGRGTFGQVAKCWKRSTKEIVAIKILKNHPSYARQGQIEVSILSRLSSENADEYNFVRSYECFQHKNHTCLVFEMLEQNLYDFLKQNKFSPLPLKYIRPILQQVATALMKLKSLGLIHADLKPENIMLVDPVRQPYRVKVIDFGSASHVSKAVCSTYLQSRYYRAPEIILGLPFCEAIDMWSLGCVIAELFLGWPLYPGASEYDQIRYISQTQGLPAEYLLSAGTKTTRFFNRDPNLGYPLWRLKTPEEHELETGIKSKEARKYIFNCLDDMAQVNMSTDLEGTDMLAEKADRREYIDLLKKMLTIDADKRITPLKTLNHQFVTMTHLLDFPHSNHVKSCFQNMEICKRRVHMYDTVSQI

On to `CN(C1=N/C(=C\c2ccc3c(c2)OCCO3)C(=O)N1)c1ccc2ncsc2c1` [Example 84, (Z)-2-(benzo[d]thiazol-6-yl(methyl)amino)-5-((2,3-dihydrobenzo[b][1,4]dioxin-6-yl)methylene)-3,5-dihydro-4H-imidazol-4-one], for which the IC50 in assay [1] was 0.1 to 1 µM; in assay [2], > 10 µM; in assay [3], 1 to 10 µM.
The corresponding values for `O=C1NC(N(CCO)c2ccccc2)=N/C1=C\c1ccc2c(c1)OCO2` [Example 13, (Z)-5-(benzo[d][1,3]dioxol-5-ylmethylene)-2-((2-hydroxyethyl)(phenyl)amino)-3,5-dihydro-4H-imidazol-4-one] are 0.1 to 1 µM, 1 to 10 µM and 1 to 10 µM.
`CN1C(=O)/C(=C/c2ccc3c(c2)OCO3)N=C1N(C)c1ccccc1` [Example 3, (Z)-5-(benzo[d][1,3]dioxol-5-ylmethylene)-3-methyl-2-(methyl(phenyl)amino)-3,5-dihydro-4H-imidazol-4-one]: the figures for the IC50 in assay [1], in assay [2] and in assay [3] were 1 to 10 µM, > 10 µM and > 10 µM, respectively.
Turning to `Cn1cnc2ccc(/C=C3\N=C(Nc4ccccc4)NC3=O)cc21` [Example 46, (Z)-5-((1-methyl-1H-benzo[d]imidazol-6-yl)methylene)-2-(phenylamino)-3,5-dihydro-4H-imidazol-4-one], the IC50 in assay [1] was < 0.1 µM; in assay [2], 0.1 to 1 µM; in assay [3] it was 0.1 to 1 µM.
`CN(Cc1ccccc1)C1=N/C(=C\c2ccc3c(c2)OCO3)C(=O)N1` [Example 23, (Z)-5-(benzo[d][1,3]dioxol-5-ylmethylene)-2-(benzyl(methyl)amino)-3,5-dihydro-4H-imidazol-4-one]: the half-maximal inhibitory concentration (IC50) is 0.1 to 1 µM in assay [1], > 10 µM in assay [2] and > 10 µM in assay [3].
Take `O=C1NC(Nc2ccccc2)=N/C1=C\c1cncs1` [Example 15, (Z)-2-(phenylamino)-5-(thiazol-5-ylmethylene)-3,5-dihydro-4H-imidazol-4-one]: the IC50 in assay [1], in assay [2] and in assay [3] was > 10 µM in each case.
On to `CN(C1=N/C(=C\c2ccc3ncsc3c2)C(=O)N1)c1ccc2ncsc2c1` [Example 83, (Z)-2-(benzo[d]thiazol-6-yl(methyl)amino)-5-(benzo[d]thiazol-6-ylmethylene)-3,5-dihydro-4H-imidazol-4-one], for which the IC50 in assay [1] is 0.1 to 1 µM; in assay [2], > 10 µM; in assay [3] it was > 10 µM.
Turning to `O=C1/C(=C/c2ccc3c(c2)OCO3)N=C(N(Cc2ccccc2)c2ccccc2)N1Cc1ccccc1` [Example 2, (Z)-5-(benzo[d][1,3]dioxol-5-ylmethylene)-3-benzyl-2-(benzyl(phenyl)amino)-3,5-dihydro-4H-imidazol-4-one], the IC50 in assay [1] is 1 to 10 µM; in assay [2], > 10 µM; in assay [3], > 10 µM.
Turning to `O=C1NC(N(Cc2ccccc2)c2ccccc2)=N/C1=C\c1ccc2c(c1)OCO2` [Example 22, (Z)-5-(benzo[d][1,3]dioxol-5-ylmethylene)-2-(benzyl(phenyl)amino)-3,5-dihydro-4H-imidazol-4-one], the IC50 in assay [1], in assay [2] and in assay [3] was > 10 µM throughout.
